In the NIST ThermoML archive (doi:10.1007/s10765-011-1087-7):

How the values were obtained:
[1] = refractive index (Na D-line) (dimensionless); xn = mol fraction of the nth substance listed; settings: 101 kPa, Liquid
[2] = xn = mol fraction of the nth substance listed; settings: 101 kPa, Liquid; for speed of sound: Pulse-echo method

CCCCCCC(C)O (stereo not drawn) [2-octanol] + Clc1ccccc1Cl
Settings | mass density, [2] [kg/m3] | refractive index, [1] | speed of sound, [2] [m/s] | viscosity, [2] [mPa·s]
298.15 K, x2 = 0.0721 | 841.72 | 1.4308 | 1302 | 5.353
298.15 K, x2 = 0.1124 | 856.33 | 1.4352 | 1299.7 | 4.742
298.15 K, x2 = 0.1868 | 884.26 | 1.443 | 1295.1 | 3.839
298.15 K, x2 = 0.2615 | 913.56 | 1.4507 | 1291 | 3.163
298.15 K, x2 = 0.3223 | 938.42 | 1.4569 | 1287.8 | 2.721
298.15 K, x2 = 0.3758 | 961.09 | 1.4624 | 1285.1 | 2.414
298.15 K, x2 = 0.4495 | 993.6 | 1.4698 | 1281.8 | 2.086
298.15 K, x2 = 0.512 | 1022.45 | 1.4763 | 1279.1 | 1.873
298.15 K, x2 = 0.5923 | 1061.35 | 1.4848 | 1276.1 | 1.668
298.15 K, x2 = 0.6557 | 1093.66 | 1.492 | 1274.5 | 1.551
298.15 K, x2 = 0.7312 | 1134.18 | 1.5014 | 1273.2 | 1.406
298.15 K, x2 = 0.797 | 1171.44 | 1.5103 | 1273 | 1.293
298.15 K, x2 = 0.8672 | 1213.47 | 1.521 | 1274.4 | 1.283
298.15 K, x2 = 0.9481 | 1265.11 | 1.5353 | 1277.6 | 1.308
303.15 K, x2 = 0.0721 | 837.79 | 1.4293 | 1283.9 | 4.223
303.15 K, x2 = 0.1124 | 852.34 | 1.4336 | 1281.6 | 3.749
303.15 K, x2 = 0.1868 | 880.15 | 1.4416 | 1277.6 | 3.115
303.15 K, x2 = 0.2615 | 909.35 | 1.4492 | 1273.5 | 2.648
303.15 K, x2 = 0.3223 | 934.11 | 1.4552 | 1270.5 | 2.342
303.15 K, x2 = 0.3758 | 956.68 | 1.4604 | 1267.9 | 2.15
303.15 K, x2 = 0.4495 | 989.05 | 1.4678 | 1264.9 | 1.942
303.15 K, x2 = 0.512 | 1017.76 | 1.4741 | 1262.2 | 1.772
303.15 K, x2 = 0.5923 | 1056.48 | 1.4828 | 1259.6 | 1.613
303.15 K, x2 = 0.6557 | 1088.63 | 1.4902 | 1258 | 1.473
303.15 K, x2 = 0.7312 | 1128.95 | 1.4997 | 1257 | 1.34
303.15 K, x2 = 0.797 | 1166.05 | 1.509 | 1256.7 | 1.253
303.15 K, x2 = 0.8672 | 1207.93 | 1.52 | 1257.9 | 1.201
303.15 K, x2 = 0.9481 | 1259.5 | 1.5342 | 1261.6 | 1.223
308.15 K, x2 = 0.0721 | 833.8 | 1.4274 | 1266.6 | 3.524
308.15 K, x2 = 0.1124 | 848.27 | 1.4319 | 1264 | 3.227
308.15 K, x2 = 0.1868 | 875.95 | 1.4399 | 1260.1 | 2.763
308.15 K, x2 = 0.2615 | 905.03 | 1.4476 | 1256.2 | 2.38
308.15 K, x2 = 0.3223 | 929.69 | 1.4534 | 1253.3 | 2.121
308.15 K, x2 = 0.3758 | 952.17 | 1.4587 | 1250.8 | 1.933
308.15 K, x2 = 0.4495 | 984.42 | 1.4658 | 1247.6 | 1.7
308.15 K, x2 = 0.512 | 1013.02 | 1.4718 | 1245.4 | 1.532
308.15 K, x2 = 0.5923 | 1051.57 | 1.48 | 1242.9 | 1.362
308.15 K, x2 = 0.6557 | 1083.59 | 1.4873 | 1241.5 | 1.243
308.15 K, x2 = 0.7312 | 1123.75 | 1.4967 | 1240.5 | 1.157
308.15 K, x2 = 0.797 | 1160.72 | 1.5059 | 1240.4 | 1.132
308.15 K, x2 = 0.8672 | 1202.46 | 1.5168 | 1241.5 | 1.133
308.15 K, x2 = 0.9481 | 1253.92 | 1.531 | 1243.9 | 1.14
